Patent US20240108006A1, “PESTICIDALLY ACTIVE HETEROAROMATIC COMPOUNDS” (SYNGENTA CROP PROTECTION AG, priority 2021, published 2024)

How the values were obtained:
Type in all cases: in vivo
[1] = system: Myzus persicae; experiment: Example B7: Myzus persicae (green peach aphid), intrinsic activity, sucrose solution 24-well; conditions: 120 h, application rate of 12.5 ppm, 5 days after infestation, read-out: control (mortality)
Outline: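 Compounds from 10,000 ppm DMSO stocks were mixed into sucrose solution in wells at a rate of 12.5 ppm. Aphid-infested pea seedlings were placed on a Parafilm membrane over the solution, so aphids fed through it. Mortality was scored 5 days after infestation.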

[2] = system: Spodoptera littoralis; experiment: Example B9: Spodoptera littoralis (Egyptian cotton leaf worm), cotton leaf discs, L1 larvae; conditions: foliar, 72 h, application rate of 200 ppm, 3 days after infestation, read-out: control in at least one of the three categories (mortality, anti-feedant effect, or growth inhibition)
Outline: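 Cotton leaf discs on agar sprayed with aqueous test solutions from 10,000 ppm DMSO stocks, dried, then infested with five L1 larvae. Mortality, anti-feeding and growth inhibition scored against untreated samples 3 days after infestation.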

[3] = system: Plutella xylostella; experiment: Example B8: Plutella xylostella (diamond back moth), artificial diet 24-well, eggs; conditions: 192 h, application rate of 200 ppm, 8 days after infestation, read-out: effect in at least one of the two categories (mortality or growth inhibition)
Outline: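 Artificial diet in 24-well plates treated with aqueous dilutions of DMSO stock (10,000 ppm stock) and dried, then infested with Plutella eggs. Mortality and growth inhibition scored versus untreated samples 8 days after infestation.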

[4] = system: Euschistus heros; experiment: Example B3: Euschistus heros (neotropical brown stink bug), soybean leaves, N2 nymphs; conditions: 120 h, application rate of 200 ppm, 5 days after infestation, read-out: control in at least one of the two categories (mortality or growth inhibition)
Description: Example B3: Euschistus heros (Neotropical Brown Stink Bug)
Soybean leaves on agar in 24-well microtiter plates were sprayed with aqueous test solutions prepared from 10,000 ppm DMSO stock solutions. After drying the leaves were infested with N2 nymphs. The samples were assessed for mortality and growth inhibition in comparison to untreated samples 5 days after infestation.
The following compounds gave an effect of at least 80% control in at least one of the two categories (mortality or growth inhibition) at an application rate of 200 ppm: […]

[5] = system: Diabrotica balteata; experiment: Example B2: Diabrotica balteata (corn root worm), maize sprouts, L2 larvae; conditions: 96 h, application rate of 200 ppm, 4 days after infestation, read-out: control in at least one of the two categories (mortality or growth inhibition)
Outline: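 Maize sprouts on agar sprayed with aqueous test solutions made from 10,000 ppm DMSO stocks, dried, then infested with 6 to 10 L2 larvae per well. Mortality and growth inhibition assessed versus untreated samples 4 days after infestation; application rate 200 ppm.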

[6] = system: Myzus persicae; experiment: Example B5: Myzus persicae (green peach aphid), feeding/contact activity; conditions: 144 h, application rate of 200 ppm, 6 days after infestation
Description: Example B5: Myzus persicae (Green Peach Aphid):Feeding/Contact Activity
Sunflower leaf discs were placed onto agar in a 24-well microtiter plate and sprayed with aqueous test solutions prepared from 10,000 ppm DMSO stock solutions. After drying, the leaf discs were infested with an aphid population of mixed ages. The samples were assessed for mortality 6 days after infestation.

[7] = system: Tetranychus urticae; experiment: Example B13: Tetranychus urticae (two-spotted spider mite), feeding/contact activity; conditions: 192 h, read-out: mortality on mixed population (mobile stages)
Description: Example B13: Tetranychus urticae (Two-Spotted Spider Mite):Feeding/Contact Activity
Bean leaf discs on agar in 24-well microtiter plates were sprayed with aqueous test solutions prepared from 10,000 ppm DMSO stock solutions. After drying the leaf discs were infested with a mite population of mixed ages. The samples were assessed for mortality on mixed population (mobile stages) 8 days after infestation.

[8] = system: Chilo suppressalis; experiment: Example B1: Chilo suppressalis (striped rice stemborer), artificial diet, L2 larvae; conditions: 144 h, application rate of 200 ppm, 6 days after infestation, read-out: control in at least one of the three categories (mortality, anti-feedant effect, or growth inhibition)
Outline: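 Artificial diet was treated with aqueous test solutions made from 10,000 ppm DMSO stocks, dried, then infested with L2 larvae (6-8 per well). Mortality, anti-feeding effect and growth inhibition were scored against untreated samples 6 days after infestation, and control was counted when any category exceeded untreated.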

[9] = system: Myzus persicae; experiment: Example B11: Myzus persicae (green peach aphid), sucrose solution 96-well; conditions: 120 h, application rate of 50 ppm, 5 days after infestation
From the text: Example B11: Myzus persicae (Green Peach Aphid)
Test compounds prepared from 10,000 ppm DMSO stock solutions were applied by a liquid handling robot into 96-well microtiter plates and mixed with a sucrose solution. Parafilm was stretched over the 96-well microtiter plate and a plastic stencil with 96 holes was placed onto the plate. Aphids were sieved into the wells directly onto the Parafilm. The infested plates were closed with a gel blotting card and a second plastic stencil and then turned upside down. The samples were assessed for mortality 5 days after infestation.

[10] = system: Plutella xylostella; experiment: Example B12: Plutella xylostella (diamondback moth), artificial diet 96-well; conditions: 216 h, application rate of 500 ppm, 9 days after infestation
Description: Example B12: Plutella xylostella (Diamondback Moth)
96-well microtiter plates containing artificial diet were treated with aqueous test solutions, prepared from 10,000 ppm DMSO stock solutions, by a liquid handling robot. After drying, eggs (-30 per well) were infested onto a netted lid which was suspended above the diet. The eggs hatch and L1 larvae move down to the diet. The samples were assessed for mortality 9 days after infestation.
The following compounds gave an effect of at least 80% average mortality at an application rate of 500 ppm: […]

[11] = system: Spodoptera littoralis; experiment: Example B10: Spodoptera littoralis (Egyptian cotton leaf worm), uptake by lettuce roots from agar; conditions: 144 h, test rate of 12.5 ppm, 6 days after infestation, read-out: effect in at least one of the three categories (mortality, anti-feeding, or growth inhibition)
From the text: Example B10: Spodoptera littoralis (Egyptian Cotton Leaf Worm)
Test compounds were applied by pipette from 10,000 ppm DMSO stock solutions into 24-well plates and mixed with agar. Lettuce seeds were placed onto the agar and the multi well plate was closed by another plate which also contained agar. After 7 days the compound was absorbed by the roots and the lettuce grew into the lid plate. The lettuce leaves were then cut off into the lid plate. Spodoptera eggs were pipetted through a plastic stencil onto a humid gel blotting paper and the lid plate was closed with it. The samples were assessed for mortality, anti-feedant effect and growth inhibition in comparison to untreated samples 6 days after infestation.
The following compounds gave an effect of at least 80% in at least one of the three categories (mortality, anti-feeding, or growth inhibition) at a test rate of 12.5 ppm: […]

[12] = system: Frankliniella occidentalis; experiment: Example B4: Frankliniella occidentalis (western flower thrips), feeding/contact activity; conditions: 168 h, application rate of 200 ppm, 7 days after infestation
Description: Example B4: Frankliniella occidentalis (Western Flower Thrips):Feeding/Contact Activity
Sunflower leaf discs were placed on agar in 24-well microtiter plates and sprayed with aqueous test solutions prepared from 10,000 DMSO stock solutions. After drying the leaf discs were infested with a Frankliniella population of mixed ages. The samples were assessed for mortality 7 days after infestation.

[13] = system: Myzus persicae; experiment: Example B6: Myzus persicae (green peach aphid), systemic activity, pea seedlings; conditions: 144 h, test rate of 24 ppm, 6 days after placing seedlings into test solutions
Description: Example B6: Myzus persicae (Green Peach Aphid). Systemic Activity
Roots of pea seedlings infested with an aphid population of mixed ages were placed directly into aqueous test solutions prepared from 10,000 DMSO stock solutions. The samples were assessed for mortality 6 days after placing seedlings into test solutions.

C[C@H](NC(=O)Nc1cnc(C(F)(F)F)cc1Cl)c1ncnn1-c1cnccn1 [Example P277, 1-[4-chloro-6-(trifluoromethyl)-3-pyridyl]-3-[(1S)-1-(2-pyrazin-2-yl-1,2,4-triazol-3-yl)ethyl]urea]
≥ 80%: mortality at 12.5 ppm [1] | percent control (mortality, anti-feedant effect or growth inhibition) at 200 ppm [2] | percent effect (mortality or growth inhibition) at 200 ppm [3] | percent control (mortality or growth inhibition) at 200 ppm [4] | percent control (mortality or growth inhibition) at 200 ppm [5] | mortality at 200 ppm [6] | mortality at 200 ppm [7] | percent control (mortality, anti-feedant effect or growth inhibition) at 200 ppm [8]

CC(NC(=O)Nc1ccc(C(F)(F)F)cc1Cl)c1ncnn1-c1ncccn1 (stereo not drawn) [Example P5, 1-[2-chloro-4-(trifluoromethyl)phenyl]-3-[1-(2-pyrimidin-2-yl-1,2,4-triazol-3-yl)ethyl]urea]
≥ 80%: mortality at 12.5 ppm [1] | mortality at 50 ppm [9] | percent control (mortality, anti-feedant effect or growth inhibition) at 200 ppm [2] | mortality at 500 ppm [10] | percent effect (mortality, anti-feeding or growth inhibition) at 12.5 ppm [11] | percent effect (mortality or growth inhibition) at 200 ppm [3] | percent control (mortality or growth inhibition) at 200 ppm [4] | percent control (mortality or growth inhibition) at 200 ppm [5] | percent control (mortality, anti-feedant effect or growth inhibition) at 200 ppm [8]

CC(NC(=O)Nc1ccc(Cl)cc1C(F)(F)F)c1ncnn1-c1ncccn1 (stereo not drawn) [Example P6, 1-[4-chloro-2-(trifluoromethyl)phenyl]-3-[1-(2-pyrimidin-2-yl-1,2,4-triazol-3-yl)ethyl]urea]
≥ 80%: mortality at 12.5 ppm [1] | mortality at 50 ppm [9] | percent control (mortality, anti-feedant effect or growth inhibition) at 200 ppm [2] | mortality at 500 ppm [10] | percent effect (mortality or growth inhibition) at 200 ppm [3] | percent control (mortality or growth inhibition) at 200 ppm [5] | percent control (mortality, anti-feedant effect or growth inhibition) at 200 ppm [8]

C[C@H](NC(=O)Nc1cc(OC(F)(F)C(F)F)c(Cl)cc1Cl)c1ncnn1-c1ncccn1 [Example P46, 1-[2,4-dichloro-5-(1,1,2,2-tetrafluoroethoxy)phenyl]-3-[(1S)-1-(2-pyrimidin-2-yl-1,2,4-triazol-3-yl)ethyl]urea]
≥ 80%: mortality at 12.5 ppm [1] | mortality at 50 ppm [9] | percent control (mortality, anti-feedant effect or growth inhibition) at 200 ppm [2] | percent effect (mortality or growth inhibition) at 200 ppm [3] | percent control (mortality or growth inhibition) at 200 ppm [4] | percent control (mortality or growth inhibition) at 200 ppm [5] | mortality at 200 ppm [6] | percent control (mortality, anti-feedant effect or growth inhibition) at 200 ppm [8]

CC(NC(=O)Nc1ccc(C(F)(F)F)cc1Cl)c1ncnn1-c1ccc(C#N)cn1 (stereo not drawn) [Example P4, 1-[2-chloro-4-(trifluoromethyl)phenyl]-3-[1-[2-(5-cyano-2-pyridyl)-1,2,4-triazol-3-yl]ethyl]urea]
≥ 80%: percent control (mortality, anti-feedant effect or growth inhibition) at 200 ppm [2] | mortality at 500 ppm [10] | percent effect (mortality or growth inhibition) at 200 ppm [3] | percent control (mortality or growth inhibition) at 200 ppm [5] | percent control (mortality, anti-feedant effect or growth inhibition) at 200 ppm [8]

C[C@H](NC(=O)Nc1cnc(C(F)(F)F)cc1Cl)c1ncnn1-c1ncccn1 [Example P103, 1-[4-chloro-6-(trifluoromethyl)-3-pyridyl]-3-[(1S)-1-(2-pyrimidin-2-yl-1,2,4-triazol-3-yl)ethyl]urea]
≥ 80%: mortality at 12.5 ppm [1] | mortality at 50 ppm [9] | percent control (mortality, anti-feedant effect or growth inhibition) at 200 ppm [2] | mortality at 200 ppm [12] | mortality at 24 ppm [13] | percent effect (mortality or growth inhibition) at 200 ppm [3] | percent control (mortality or growth inhibition) at 200 ppm [4] | percent control (mortality or growth inhibition) at 200 ppm [5] | mortality at 200 ppm [6] | percent control (mortality, anti-feedant effect or growth inhibition) at 200 ppm [8]

C[C@H](NC(=O)N(C)c1cnc(C(F)(F)F)cc1Cl)c1ncnn1-c1ncccn1 [Example P235, 1-[4-chloro-6-(trifluoromethyl)-3-pyridyl]-1-methyl-3-[(1S)-1-(2-pyrimidin-2-yl-1,2,4-triazol-3-yl)ethyl]urea]
≥ 80%: mortality at 12.5 ppm [1] | mortality at 200 ppm [12] | mortality at 24 ppm [13] | percent effect (mortality or growth inhibition) at 200 ppm [3] | percent control (mortality or growth inhibition) at 200 ppm [4] | mortality at 200 ppm [6] | percent control (mortality, anti-feedant effect or growth inhibition) at 200 ppm [8]
